Laboratory results as given in the supplement of paper PMC6723410.

How the values were obtained:
[1] = tested on: GUMC-403; assay: viability at highest tested concentration (max response) relative to DMSO (% of DMSO control); higher = less cytotoxic; conditions: library / dose series: MIPE library, 11-point 1:3 dilution, 48 h
In short: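 Patient-derived GUMC-403 papilloma cells grown by conditional reprogramming were plated at 700/well in 5 μL F + Y medium in 1536-well plates and incubated overnight at 37 °C. They then received 23 nL of MIPE 4.0 compounds by pin tool (11-point 1:3 series) for 48 h. CellTiter-Glo luminescence was read on a ViewLux and normalised with DMSO wells as 100% and empty wells as 0%. The value is viability at the highest tested concentration relative to DMSO control.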

[2] = tested on: GUMC-403; assay: AC50 for reduction of cell viability; higher = less potent; conditions: library / dose series: MIPE library, 11-point 1:3 dilution; 48 h

SMILES	viability ([1]; top concentration 46.1 µM)	AC50 for reduction of cell viability [2]	viability ([1]; top concentration 92.2 µM)
CNC(=O)c1nn(C)c2c1C(C)(C)Cc1cnc(Nc3ccc(N4CCN(C)CC4)cc3)nc1-2	58.7	4.69 µM	–
O=C1\C=C(/OC2=C1C=CC=C2C3=CC=CC=C3)N4CCOCC4	61.6	5.9 µM	–
Cc1cc(Nc2cc(NC(=O)c3c(Cl)cccc3Cl)ccn2)nc(N)n1	13	20.9 µM	–
N#CC(=C(/N)Sc1ccccc1N)/C(C#N)=C(\N)Sc1ccccc1N	50.4	4.69 µM	–
Cc1cc(Nc2ncc3c(n2)N(C)C(=O)N(c2cc(NC(=O)c4cccc(C(F)(F)F)c4)ccc2C)C3)n(C)n1	53.5	0.743 µM	–
COc1cc(Nc2c(C#N)cnc3cc(OCCCN4CCN(C)CC4)c(OC)cc23)c(Cl)cc1Cl	74.7	2.35 µM	–
CN(C)c1ccc(C(=O)NCCCCCCC(=O)NO)cc1	33.9	18.7 µM	–
CC(C)[C@]12O[C@H]1[C@@H]3O[C@@]34[C@@]5(C)CC\C6=C(COC6=O)/[C@@H]5C[C@@H]7O[C@]47[C@@H]2O	22.7	0.0332 µM	–
CO[C@H]1/C=C/O[C@@]2(C)Oc3c(C)c(O)c4c(O)c(c(/C=N\N5CCN(C6CCCC6)CC5)c(O)c4c3C2=O)NC(=O)/C(C)=C\C=C\[C@H](C)[C@H](O)[C@@H](C)[C@@H](O)[C@@H](C)[C@H](OC(C)=O)[C@@H]1C	56	0.296 µM	–
COc1ccc(Nc2cc(-c3cnc(N)nc3)nc(N3CCOCC3)n2)cn1	31.5	2.96 µM	–
C[C@@]12OC(=O)[C@@]1(NC(=O)[C@@H]2CCCl)[C@@H](O)[C@H]\3CCC\C=C3	6.32	3.72 µM	–
NC1(C(=O)N[C@@H](CCO)c2ccc(Cl)cc2)CCN(c2ncnc3[nH]ccc23)CC1	33.6	16.6 µM	–
CCN(CC)CCNC(=O)c1c(C)[nH]c(/C=C2\C(=O)Nc3ccc(F)cc32)c1C	–	42.9 µM	5.58
COc1cccc2c1C(=O)c1c(O)c3c(c(O)c1C2=O)C[C@@](O)(C(=O)CO)C[C@@H]3O[C@H]1C[C@H](N)[C@H](O)[C@H](C)O1	34.7	1.87 µM	–
COC(=O)CCC1=C(C)C2=CC3=NC(=CC4=C(C)C(=C([NH]4)C=C\5N=C(C=C1[NH]2)\C(=C5C)CCC(O)=O)C=C)\C6=C\C=C(/[C@@H](C(=O)OC)[C@@]36C)C(=O)OC	32.5	0.662 µM	–
COc1c(C)cnc(Cn2cnc3c(Cl)nc(N)nc32)c1C	61.4	2.96 µM	–
NCC(=O)Nc1ccc(-n2nc(C(F)(F)F)cc2-c2ccc3c(ccc4ccccc43)c2)cc1	1.75	26.4 µM	–
c1nc2c(NC3CCCCC3)nc(Nc3ccc(N4CCOCC4)cc3)nc2[nH]1	31.3	18.7 µM	–
COc1ccc(-c2ccc3c(N4CCOC[C@@H]4C)nc(N4CCOC[C@@H]4C)nc3n2)cc1CO	57.2	0.0372 µM	–
CCC[C@@H](C=O)NC(=O)[C@H](CC(C)C)NC(=O)[C@H](CC(C)C)NC(=O)OCc1ccccc1	7.94	14.8 µM	–
CC1(C)CC(=O)c2c(C(F)(F)F)nn(-c3ccc(C(N)=O)c(NC4CCC(O)CC4)c3)c2C1 (centres undefined)	67.7	0.296 µM	–
CCOC(=O)[C@H](CCc1ccccc1)N[C@@H](C)C(=O)N1[C@H](C(=O)O)C[C@@H]2CCC[C@@H]21	4.65	26.4 µM	–
COc1cc(N2CCC(C(N)=O)CC2)ccc1Nc1nc(N)c(Cl)c(Nc2ccccc2[S+](=O)([O-])C(C)C)n1	68.2	8.33 µM	–
C[C@H](NCc1ccc2c(c1)nc(NC(=O)c1ccc(-c3cn[nH]c3)s1)n2CCc1ccccc1)C(C)(C)C	8.07	3.72 µM	–
CC(C)C1=C(O)C=C(O)C(=C1)C/2=N/NC(=O)N2C3=CC4=C(C=C3)[N](C)C=C4	61.4	0.148 µM	–
O=C(OC)[C@]12CC[C@@]3(C)[C@]4(C)CC[C@H]5[C@@](C)(C)C(=O)C(=C[C@]5(C)C4=CC(=O)[C@@H]3[C@@H]2C[C@](C)(C)CC1)C#N	4.67	2.96 µM	–
Cc1n[nH]c2ccc(-c3cncc(OC[C@@H](N)Cc4c[nH]c5ccccc45)c3)cc12	7.23	1.87 µM	–
